Experimental data published in patent publication US10913727B2, “Modulators of the integrated stress pathway” (Calico Life Sciences LLC, priority 2016, dated 2021).

System: HEK293T cells carrying the ATF4 luciferase reporter
Test: ATF4-Luc assay, in vitro model of Vanishing Cell White Matter Disease (VWMD)
Assay type: cell-based
Settings: Homo sapiens, HEK-293T, 1 μg/mL tunicamycin, 7 hours, One Glo luminescence
Procedure: In order to test exemplary compounds of the invention in a cellular context, a stable VWMD cell line was first constructed. The ATF4 reporter was prepared by fusing the human full-length ATF4 5′-UTR (NCBI Accession No. BC022088.2) in front of the firefly luciferase (FLuc) coding sequence lacking the initiator methionine as described in Sidrauski et al (eLife 2013). The construct was used to produce recombinant retroviruses using standard methods and the resulting viral supernatant was used to transduce HEK293T cells, which were then subsequently selected with puromycin to generate a stable cell line.
HEK293T cells carrying the ATF4 luciferase reporter were plated on polylysine coated 384-well plates (Greiner Bio-one) at 30,000 cells per well. Cells were treated the next day with 1 μg/mL tunicamycin and 200 nM of a compound of Formula (I) for 7 hours. Luminescence was measured using One Glo (Promega) as specified by the manufacturer. Cells were maintained in DMEM with L-glutamine supplemented with 10% heat-inactivated FBS (Gibco) and Antibiotic-Antimycotic solution (Gibco).
Table 2 below summarizes the EC50 data obtained using the ATF4-Luc assay for exemplary compounds of the invention.

Compound | EC50
CCc1ccc(C(=O)NC23CC(NC(=O)COc4ccc(Cl)c(F)c4)(C2)C3)nc1 [Compound 145, N-{3-[2-(4-chloro-3-fluorophenoxy)acetamido]bicyclo[1.1.1]pentan-1-yl}-5-ethylpyridine-2-carboxamide] | 50 to 250 nM
Cc1ccc(C(=O)NC23CC(NC(=O)COc4ccc(Cl)c(F)c4)(C2)C3)nc1 [Compound 146, N-{3-[2-(4-chloro-3-fluorophenoxy)acetamido]bicyclo[1.1.1]pentan-1-yl}-5-methylpyridine-2-carboxamide] | 50 to 250 nM
O=C(COc1ccc(Cl)c(Cl)c1)NC12CC(NC(=O)c3ccc(OC(F)(F)F)nc3)(C1)C2 [Compound 147, N-{3-[2-(3,4-dichlorophenoxy)acetamido]bicyclo[1.1.1]pentan-1-yl}-6-(trifluoromethoxy)pyridine-3-carboxamide] | 50 to 250 nM
CC(=O)N1CCC(c2ncc(C(=O)NC34CC(NC(=O)COc5ccc(Cl)c(F)c5)(C3)C4)o2)CC1 [Compound 148, 2-(1-acetylpiperidin-4-yl)-N-{3-[2-(4-chloro-3-fluorophenoxy)acetamido]bicyclo[1.1.1]pentan-1-yl}-1,3-oxazole-5-carboxamide] | > 2000 nM
CC(=O)N1CCC(c2ncc(C(=O)NC34CC(NC(=O)COc5ccc(Cl)c(Cl)c5)(C3)C4)o2)CC1 [Compound 149, 2-(1-acetylpiperidin-4-yl)-N-{3-[2-(3,4-dichlorophenoxy)acetamido]bicyclo[1.1.1]pentan-1-yl}-1,3-oxazole-5-carboxamide] | 1000 to 2000 nM
CC(C)(C)OC(=O)N1CCC=C(c2ncc(C(=O)NC34CC(NC(=O)COc5ccc(Cl)c(F)c5)(C3)C4)o2)C1 [Compound 150, tert-butyl 5-[5-({3-[2-(4-chloro-3-fluorophenoxy)acetamido]bicyclo[1.1.1]pentan-1-yl}carbamoyl)-1,3-oxazol-2-yl]-3,6-dihydropyridine-1(2H)-carboxylate] | 50 to 250 nM
CC(=O)N1CC=C(c2ncc(C(=O)NC34CC(NC(=O)COc5ccc(Cl)c(F)c5)(C3)C4)o2)CC1 [Compound 151, 2-(1-acetyl-1,2,3,6-tetrahydropyridin-4-yl)-N-{3-[2-(4-chloro-3-fluorophenoxy)acetamido]bicyclo[1.1.1]pentan-1-yl}-1,3-oxazole-5-carboxamide] | > 2000 nM
O=C(COc1ccc(Cl)c(F)c1)NC12CC(NC(=O)c3ccc(OC(F)F)cn3)(C1)C2 [Compound 152, N-{3-[2-(4-chloro-3-fluorophenoxy)acetamido]bicyclo[1.1.1]pentan-1-yl}-5-(difluoromethoxy)pyridine-2-carboxamide] | 50 to 250 nM
O=C(COc1ccc(Cl)c(Cl)c1)NC12CC(NC(=O)c3ccc(OC(F)F)cn3)(C1)C2 [Compound 153, N-{3-[2-(3,4-dichlorophenoxy)acetamido]bicyclo[1.1.1]pentan-1-yl}-5-(difluoromethoxy)pyridine-2-carboxamide] | 50 to 250 nM
COc1ccc(C(=O)NC23CC(NC(=O)COc4ccc(Cl)c(F)c4)(C2)C3)cn1 [Compound 154, N-{3-[2-(4-chloro-3-fluorophenoxy)acetamido]bicyclo[1.1.1]pentan-1-yl}-6-methoxypyridine-3-carboxamide] | 250 to 1000 nM
O=C(COc1ccc(Cl)c(F)c1)NC12CC(NC(=O)c3ccc(C4=CCOCC4)nc3)(C1)C2 [Compound 155, N-{3-[2-(4-chloro-3-fluorophenoxy)acetamido]bicyclo[1.1.1]pentan-1-yl}-6-(3,6-dihydro-2H-pyran-4-yl)pyridine-3-carboxamide] | 1000 to 2000 nM
O=C(COc1ccc(Cl)c(Cl)c1)NC12CC(NC(=O)c3ccccn3)(C1)C2 [Compound 156, N-{3-[2-(3,4-dichlorophenoxy)acetamido]bicyclo[1.1.1]pentan-1-yl}pyridine-2-carboxamide] | 50 to 250 nM
CC(C)(C)[Si](C)(C)OCCOc1ccc(C(=O)NC23CC(NC(=O)COc4ccc(Cl)c(F)c4)(C2)C3)cn1 [Compound 157, 6-(2-{[tert-butyl(dimethyl)silyl]oxy}ethoxy)-N-{3-[2-(4-chloro-3-fluorophenoxy)acetamido]bicyclo[1.1.1]pentan-1-yl}pyridine-3-carboxamide] | > 2000 nM
O=C(COc1ccc(Cl)c(Cl)c1)NC12CC(NC(=O)c3ccc(OCCO)nc3)(C1)C2 [Compound 158, N-{3-[2-(3,4-dichlorophenoxy)acetamido]bicyclo[1.1.1]pentan-1-yl}-6-(2-hydroxyethoxy)pyridine-3-carboxamide] | 250 to 1000 nM
O=C(COc1ccc(Cl)c(F)c1)NC12CC(NC(=O)c3ccc(CO)cn3)(C1)C2 [Compound 159, N-{3-[2-(4-chloro-3-fluorophenoxy)acetamido]bicyclo[1.1.1]pentan-1-yl}-5-(hydroxymethyl)pyridine-2-carboxamide] | 250 to 1000 nM
O=C(COc1ccc(Cl)c(Cl)c1)NC12CC(NC(=O)c3ccc(CO)cn3)(C1)C2 [Compound 160, N-{3-[2-(3,4-dichlorophenoxy)acetamido]bicyclo[1.1.1]pentan-1-yl}-5-(hydroxymethyl)pyridine-2-carboxamide] | 250 to 1000 nM

Compound | EC50
O=C(COc1ccc(Cl)c(F)c1)NC12CC(NC(=O)c3ccc(OCCO)nc3)(C1)C2 [Compound 161, N-{3-[2-(4-chloro-3-fluorophenoxy)acetamido]bicyclo[1.1.1]pentan-1-yl}-6-(2-hydroxyethoxy)pyridine-3-carboxamide] | 1000 to 2000 nM
Cc1cnc(C(=O)NC23CC(NC(=O)COc4ccc(C(F)(F)F)nc4)(C2)C3)cn1 [Compound 162, 5-methyl-N-[3-(2-{[6-(trifluoromethyl)pyridin-3-yl]oxy}acetamido)bicyclo[1.1.1]pentan-1-yl]pyrazine-2-carboxamide] | > 2000 nM
O=C(COc1ccc(Cl)c(F)c1)NC12CC(NC(=O)c3cnc(C4=CCC(O)CC4)o3)(C1)C2 (stereo not shown) [Compound 163, N-{3-[2-(4-chloro-3-fluorophenoxy)acetamido]bicyclo[1.1.1]pentan-1-yl}-2-(4-hydroxycyclohex-1-en-1-yl)-1,3-oxazole-5-carboxamide] | 1000 to 2000 nM
O=C(COc1ccc(Cl)c(Cl)c1)NC12CC(NC(=O)c3cnccn3)(C1)C2 [Compound 164, N-{3-[2-(3,4-dichlorophenoxy)acetamido]bicyclo[1.1.1]pentan-1-yl}pyrazine-2-carboxamide] | 50 to 250 nM
O=C(COc1ccc(Cl)c(Cl)c1)NC12CC(NC(=O)c3cccc(CO)n3)(C1)C2 [Compound 165, N-{3-[2-(3,4-dichlorophenoxy)acetamido]bicyclo[1.1.1]pentan-1-yl}-6-(hydroxymethyl)pyridine-2-carboxamide] | > 2000 nM
O=C(COc1ccc(Cl)c(Cl)c1)NC12CC(NC(=O)c3cc(CO)ccn3)(C1)C2 [Compound 166, N-{3-[2-(3,4-dichlorophenoxy)acetamido]bicyclo[1.1.1]pentan-1-yl}-4-(hydroxymethyl)pyridine-2-carboxamide] | 50 to 250 nM
O=C(COc1ccc(Cl)c(F)c1)NC12CCC(NC(=O)c3ccccn3)(CC1)C(O)C2 (stereo not shown) [Compound 167, N-{4-[2-(4-chloro-3-fluorophenoxy)acetamido]-2-hydroxybicyclo[2.2.2]octan-1-yl}pyridine-2-carboxamide] | 50 to 250 nM
O=C(COc1ccc(Cl)c(F)c1)NC12CCC(NC(=O)c3ccc(F)cn3)(CC1)C(O)C2 (stereo not shown) [Compound 168, N-{4-[2-(4-chloro-3-fluorophenoxy)acetamido]-2-hydroxybicyclo[2.2.2]octan-1-yl}-5-fluoropyridine-2-carboxamide] | 50 to 250 nM
Cc1ccc(C(=O)NC23CCC(NC(=O)COc4ccc(Cl)c(F)c4)(CC2)CC3O)nc1 (stereo not shown) [Compound 169, N-{4-[2-(4-chloro-3-fluorophenoxy)acetamido]-2-hydroxybicyclo[2.2.2]octan-1-yl}-5-methylpyridine-2-carboxamide] | 50 to 250 nM
N#Cc1ccc(C(=O)NC23CCC(NC(=O)COc4ccc(Cl)c(F)c4)(CC2)CC3O)nc1 (stereo not shown) [Compound 170, N-{4-[2-(4-chloro-3-fluorophenoxy)acetamido]-2-hydroxybicyclo[2.2.2]octan-1-yl}-5-cyanopyridine-2-carboxamide] | 50 to 250 nM
COC/C=C/c1cnc(C(=O)NC23CC(NC(=O)COc4ccc(Cl)c(F)c4)(C2)C3)cn1 [Compound 171, N-{3-[2-(4-chloro-3-fluorophenoxy)acetamido]bicyclo[1.1.1]pentan-1-yl}-5-[(1E)-3-methoxyprop-1-en-1-yl]pyrazine-2-carboxamide] | 50 to 250 nM
COCCCc1cnc(C(=O)NC23CC(NC(=O)COc4ccc(Cl)c(F)c4)(C2)C3)cn1 [Compound 172, N-{3-[2-(4-chloro-3-fluorophenoxy)acetamido]bicyclo[1.1.1]pentan-1-yl}-5-(3-methoxypropyl)pyrazine-2-carboxamide] | 250 to 1000 nM
N#Cc1ccc(C(=O)NC23CC(NC(=O)COc4ccc(Cl)c(F)c4)(C2)C3)nc1 [Compound 173, N-{3-[2-(4-chloro-3-fluorophenoxy)acetamido]bicyclo[1.1.1]pentan-1-yl}-5-cyanopyridine-2-carboxamide] | 50 to 250 nM
COCc1cccc(C(=O)NC23CC(NC(=O)COc4ccc(Cl)c(F)c4)(C2)C3)n1 [Compound 174, N-{3-[2-(4-chloro-3-fluorophenoxy)acetamido]bicyclo[1.1.1]pentan-1-yl}-6-(methoxymethyl)pyridine-2-carboxamide] | 250 to 1000 nM
O=C(COc1ccc(Cl)c(F)c1)NC12CC(NC(=O)c3cnccn3)(C1)C2 [Compound 175, N-{3-[2-(4-chloro-3-fluorophenoxy)acetamido]bicyclo[1.1.1]pentan-1-yl}pyrazine-2-carboxamide] | 250 to 1000 nM
